# Patent US20160150792A1, “WATER PURIFICATION COMPOSITIONS AND APPLICATIONS FOR SAME” (priority 2011, published 2016)
# Tested on: mixture of E. coli and P. aeruginosa
# Assay: Disinfection of contaminated surgical instruments and objects
# Assay type: cell-based, E. coli (ATCC 11229) and P. aeruginosa (ATCC 15442)
# Details: immersion 30 minutes; instruments contaminated with 7.0×10^9 bacteria
# Procedure: Cultures: E. coli (ATCC11229) and P. aeruginosa (ATCC15442) from the American Type Culture Collection (ATCC) were grown in Tryptic Soy Broth (TSB) according to the instructions provided by ATCC.
# Sterile surgical instruments (probes, scalpel handles, and forceps) and other objects were inoculated with 20 μL of the concentrated culture and allowed to dry for 30 minutes in a laminar flow hood. Contaminated surgical instruments were treated with SAFI (various copper or copper/zinc mixes at pH 3.2 or pH 0.2) by immersing the objects in 40 mL sterile water containing 1, 10, or 100 ppm SAFI for time periods of 30 minutes −22 hours. Comparison treatments included no treatment (control), boiling the instruments in water for 30 minutes, immersing the instruments in 40 mL of 70% EtOH for 30 minutes, or autoclaving the instruments at 15 lbs/in^2 at 121° C. for 20 minutes. […]
# The ability of a solution of SAFI to disinfect contaminated surgical instruments was determined by contaminating forceps, scalpel handles, and probes with 20 uL of a concentrated mixture of E. coli and P. aeruginosa and incubating the contaminated instruments in a SAFI solution for 30 minutes. […] Bacteria present after overnight incubation were determined by standard plate counts. […]
structure (smiles),measurement,value
"CCO [70% ethanol, ethanol]",effectiveness in killing bacteria (comparison treatment),effective in killing bacteria
